ChEMBL document CHEMBL1136177, “Neuroprotective or neurotoxic activity of 1-methyl-1,2,3,4-tetrahydroisoquinoline and related compounds” (Bioorg Med Chem Lett, 2003)

assay: Neurotoxicity against human neuroblastoma SH-SY5Y cells using MTT dye conversion assay

Row | Structure (SMILES) | CC50 [mM]
1 | CC1NCCc2cc(O)c(O)cc21 (stereo not drawn) | 0.034
2 | CC1NCCc2c(O)cccc21 (stereo not drawn) | 3.38
3 | COc1cccc2c1CCNC2C (stereo not drawn) | 2.45
4 | COc1cc2c(cc1OC)C(C)NCC2 (stereo not drawn) | 2.73
5 | CC1NCCc2cc(O)ccc21 (stereo not drawn) | 3.63
6 | COc1ccc2c(c1)CCNC2C (stereo not drawn) | 2.79
7 | CC1NCCc2ccc(O)cc21 (stereo not drawn) | 4.15
8 | COc1ccc2c(c1)C(C)NCC2 (stereo not drawn) | 1.39
